{
  "source": "patent US3934024A",
  "about": "“Method of producing analgesia and compositions useful therein” (Sharps Associates, priority 1975, dated 1976)",
  "key": {"[1]": {"tested_on": "rat", "assay": "rat tail flick test for analgesic activity", "format": "in vivo", "conditions": "oral, 95% C.L. = 0.9 - 4.8", "from_the_text": "In the rat tail flick test for analgesic activity [D'Amour and Smith, J. Pharmacol. Exper. Therap."}, "[2]": {"tested_on": "mice", "assay": "Acetic acid writhing test in mice (oral)", "format": "in vivo", "conditions": "for Percent inhibition: acetic acid writhing, writhes counted for 20 minutes beginning 5 minutes after acid injection", "protocol": "The analgesic activity of the compound was evaluated in an acetic acid writhing test. The acetic acid writhing test used was modified from that described by Whittle, Brit J. Pharmacol., 22, 296 (1964). The number of writhes were counted for a 20 minute period beginning 5 minutes after the injection of the acid. Analgetic potency was calculated from the difference between the test groups and their controls.\nAcetic acid writhing test in mice (oral)"}},
  "data": [
    {"smiles": "CCCCCC(C)C(C)c1cc(O)c2c(c1)OC(C)(C)C1=C2CCCS1", "note": "(stereo not drawn) [Compound I, 1,2-dihydro-5,5-dimethyl-10-hydroxy-8-(3-methyl-2-octyl)-3H,5H-thiopyrano[2,3-c][1]benzopyran]", "values": [
      {"measurement": "ED50", "setting": "[1]", "result": 2.7, "unit": "mg/kg"},
      {"measurement": "ED50", "setting": "[2]; Mus musculus, oral, 95% C.L. = 9.2 - 12.4", "result": 10.8, "unit": "mg/kg"},
      {"measurement": "Percent inhibition", "setting": "[2]; 5 mg/kg p.o.", "result": 20.7, "unit": "%"},
      {"measurement": "Percent inhibition", "setting": "[2]; 10 mg/kg p.o.", "result": 48.9, "unit": "%"},
      {"measurement": "Percent inhibition", "setting": "[2]; 20 mg/kg p.o.", "result": 74.0, "unit": "%"},
      {"measurement": "Percent inhibition", "setting": "[2]; 40 mg/kg p.o.", "result": 95.6, "unit": "%"}
    ]}
  ]
}
